The results in this text go back to patent US5583142A, “Analgesic and nootropic drugs” (priority 1992, dated 1996).

This assay is classed as in vivo, mouse. The conditions noted are these: for ANALGESIC ACTIVITY (degree of analgesia, latency on hot plate): max. dose not affecting mice behaviour. Here is the method: The analgesic action was detected in mouse, rat, guinea pig and dog. The mouse was subjected to hot plate and writhing tests; the rat to tail-flick and paw-pressure tests; the guinea pig to paw-pressure test only; the dog to the test described by Vainio et al. [J. Vet. Pharmacol. Ther., 12, 225-231 (1989)] using an electric stimulation. Consequently, the claimed compounds were tested with pain being induced by stimuli of different nature: thermal (hot plate and tail flick), chemical (writhing by acetic acid), mechanical (paw pressure) and electrical (cutaneous stimulation).
Potency, efficacy and toxicity of SM21, PG9 and SM32 in comparison with
four principal reference analgesic drugs tested in mouse. As analgesic

Consider `CCC(Sc1ccc(Cl)cc1)C(=O)O[C@H]1C[C@H]2CC[C@@H](C1)N2C` (stereo partly drawn) [SM-35, 3α-Tropanyl 2-(p-chlorophenylthio)-butyrate], for which the “ANALGESIC ACTIVITY (degree of analgesia, latency on hot plate)” value (“ANALGESIC ACTIVITY” for short) is on record as “+++ (Latency under or equal to 35" +++-)”.
In the case of `CN1[C@@H]2CC[C@H]1C[C@@H](OC(=O)C(C)(C)Oc1ccc(Cl)cc1)C2` [SM-25, 3α-Tropanyl 2-(p-chlorophenoxy)-isobutyrate], the “ANALGESIC ACTIVITY” value was “++ (Latency under or equal to 30" ++-)”.
Still for that read-out and setting: for `CC(Sc1ccc(Cl)cc1)C(=O)OC1CC2CCC(C1)N2C` (single isomer, unassigned) [(R) SS20 (+)] the value was “+++ (Latency under or equal to 35" +++-)”; for `CC(Oc1ccc(Cl)cc1)C(=O)OC1CC2CCC(C1)N2C` (single isomer, unassigned) [(S) ET142 (-)], “++ (Latency under or equal to 30" ++-)”; for `CC(Sc1ccccc1)C(=O)OC1CC2CCC(C1)N2C` (centres unmarked) [SS12], “++ (Latency under or equal to 30" ++-)”.
Regarding `CC(Oc1ccc(C#N)cc1)C(=O)O[C@H]1C[C@H]2CC[C@@H](C1)N2C` (some centres unmarked) [SS26], the “ANALGESIC ACTIVITY” value is on record as “++ (Latency under or equal to 30" ++-)”.
For `CSc1ccc(OC(C)C(=O)O[C@H]2C[C@H]3CC[C@@H](C2)N3C)cc1` (some centres unmarked) [NR95], the “ANALGESIC ACTIVITY” value is listed as “+ (Latency under or equal to 25" +-)”.
For the compound `CC(C(=O)OC1CC2CCC(C1)N2C)c1ccccc1Br` (centres unmarked) [PG23], the “ANALGESIC ACTIVITY” value is on record as “++ (Latency under or equal to 30" ++-)”.
Regarding `CC(Nc1ccccc1)C(=O)OC1CC2CCC(C1)N2C` (centres unmarked) [SS29], the “ANALGESIC ACTIVITY” value is reported as “+++ (Latency under or equal to 35" +++-)”.
Regarding `CCC(C(=O)OC1CC2CCC(C1)N2C)c1ccc(Br)cc1` (centres unmarked) [PG24], the “ANALGESIC ACTIVITY” value is recorded as “+++ (Latency under or equal to 35" +++-)”.
Still for that read-out and setting: for `CC(C)Cc1ccc(C(C)C(=O)OC2CC3CCC(C2)N3C)cc1` (centres unmarked) [PG16] the value was “+ (Latency under or equal to 25" +-)”; for `CC(Oc1ccc(Cl)cc1)C(=O)OC1CC2CCC(C1)N2C` (single isomer, unassigned) [(R) ET142 (+)], “+++ (Latency under or equal to 35" +++-)”; for `CC(Sc1ccc(F)cc1)C(=O)OC1CC2CCC(C1)N2C` (centres unmarked) [SM23], “++ (Latency under or equal to 30" ++-)”.
Same read-out and setting: for `CC(C(=O)OC1CC2CCC(C1)N2C)c1cccc(Cl)c1` (centres unmarked) [PG13] the value was “+++ (Latency under or equal to 35" +++-)”.
Consider `COc1ccc(C(C)C(=O)OC2CC3CCC(C2)N3C)cc1` (centres unmarked) [PG18], for which the “ANALGESIC ACTIVITY” value is recorded as “+ (Latency under or equal to 25" +-)”.
Still for that read-out and setting: in the case of `CC(Nc1ccc(Cl)cc1)C(=O)OC1CC2CCC(C1)N2C` (stereo not drawn) [AC5, 3α-Tropanyl 2-(p-chlorophenylamino)-propionate] it was “+ (Latency under or equal to 25" +-)”; in that of `CC(Oc1ccc2ccccc2c1)C(=O)O[C@H]1C[C@H]2CC[C@@H](C1)N2C` (stereo partly drawn) [AC-19, 3α-Tropanyl 2-(β-naphthoxy)propionate], “+++ (Latency under or equal to 35" +++-)”; in that of `CC(Oc1ccc(F)cc1)C(=O)OC1CC2CCC(C1)N2C` (single isomer, unassigned) [(R) NR100 (+)], “++++ (Latency above 35" ++++-)”.
On the same count and under the same terms, in the case of `CC(Sc1ccc(Cl)cc1)C(=O)O[C@H]1C[C@H]2CC[C@@H](C1)N2C` (stereo partly drawn) [SS-20, 3α-Tropanyl 2-(p-chlorophenylthio)propionate] it was “+++ (Latency under or equal to 35" +++-)”.
With `CCC(Sc1ccc(Cl)cc1)C(=O)OC1CC2CCC(C1)N2C` (single isomer, unassigned) [(S) SM35 (-), 3α-Tropanyl 2-(p-chlorophenylthio)butyrate], the “ANALGESIC ACTIVITY” value is recorded as “++ (Latency under or equal to 30" ++-)”.
On the same count and under the same terms, for `CC(C(=O)OC1CC2CCC(C1)N2C)c1ccccc1Cl` (centres unmarked) [PG14] the value was “+++ (Latency under or equal to 35" +++-)”.
Same read-out and setting: in the case of `CC(C(=O)OC1CC2CCC(C1)N2C)c1ccc(F)cc1` (centres unmarked) [PG21] it was “+++ (Latency under or equal to 35" +++-)”; in that of `CC(Oc1ccc(F)cc1)C(=O)OC1CC2CCC(C1)N2C` (single isomer, unassigned) [(S) NR100 (-)], “+++ (Latency under or equal to 35" +++-)”; in that of `CC(Oc1ccc(Cl)cc1)C(=O)N[C@H]1C[C@H]2CC[C@@H](C1)N2C` (stereo partly drawn) [SS-16, N-(3α-tropanyl)-2-(p-chlorophenoxy)-propionamide], “+ (Latency under or equal to 25" +-)”.
Still for that read-out and setting: in the case of `CC(C(=O)OC1CC2CCC(C1)N2C)c1ccc([N+](=O)[O-])cc1` (centres unmarked) [PG4] it was “+ (Latency under or equal to 25" +-)”; in that of `CCC(Oc1ccc2cc(Br)ccc2c1)C(=O)OC1CC2CCC(C1)N2C` (centres unmarked) [AC31], “+ (Latency under or equal to 25" +-)”; in that of `CC(Oc1cccc(Cl)c1)C(=O)OC1CC2CCC(C1)N2C` (centres unmarked) [SM12], “++ (Latency under or equal to 30" ++-)”.
On to `CC(C)C(Sc1ccc(Cl)cc1)C(=O)OC1CC2CCC(C1)N2C` (centres unmarked) [AC11], for which the “ANALGESIC ACTIVITY” value is reported as “+ (Latency under or equal to 25" +-)”.
`CCC(C(=O)OC1CC2CCC(C1)N2C)N(C)c1ccc(Cl)cc1` (centres unmarked) [AC13]: the “ANALGESIC ACTIVITY” value is given as “++++ (Latency above 35" ++++-)”.
The same measure, in the same setting: in the case of `CCC(Oc1ccc(Cl)cc1)C(=O)O[C@H]1C[C@H]2CC[C@@H](C1)N2CC` (stereo partly drawn) [GC-11, N-Ethyl-3α-nortropanyl 2-(p-chlopophenoxy)butyrate] it was “++ (Latency under or equal to 30" ++-)”; in that of `CC(Oc1ccc(Cl)c(Cl)c1)C(=O)OC1CC2CCC(C1)N2C` (centres unmarked) [SS10], “+ (Latency under or equal to 25" +-)”.
In the case of `CC(Oc1ccc(Br)cc1)C(=O)O[C@H]1C[C@H]2CC[C@@H](C1)N2C` (some centres unmarked) [SM15], the “ANALGESIC ACTIVITY” value was “++ (Latency under or equal to 30" ++-)”.
Same read-out and setting: for `CC(C(=O)O[C@H]1C[C@H]2CC[C@@H](C1)N2C)N(C)c1ccc(Cl)cc1` (stereo partly drawn) [AC6, 3α-Tropanyl 2-[N-methyl-N(p-chlorophenyl)amino]-propionate] the value was “++ (Latency under or equal to 30" ++-)”.
Still for that read-out and setting: in the case of `Cc1ccc(SC(C)C(=O)OC2CC3CCC(C2)N3C)cc1` (centres unmarked) [SS21] it was “+ (Latency under or equal to 25" +-)”; in that of `CC(C(=O)O[C@H]1C[C@H]2CC[C@@H](C1)N2C)c1ccc(Cl)cc1` (stereo partly drawn) [PG-8, 3α-Tropanyl 2-(p-chlorophenyl)-propionate], “+++ (Latency under or equal to 35" +++-)”; in that of `CC(Oc1ccc(F)cc1)C(=O)O[C@H]1C[C@H]2CC[C@@H](C1)N2C` (some centres unmarked) [NR100], “++++ (Latency above 35" ++++-)”.
Consider `CC(Sc1ccc(Br)cc1)C(=O)OC1CC2CCC(C1)N2C` (centres unmarked) [SM17], for which the “ANALGESIC ACTIVITY” value was “++++ (Latency above 35" ++++-)”.
Consider `CC(C(=O)OC1CC2CCC(C1)N2C)c1ccc(N)cc1` (centres unmarked) [PG5], for which the “ANALGESIC ACTIVITY” value was “+ (Latency under or equal to 25" +-)”.
Consider `CC(Sc1ccc(Cl)cc1)C(=O)OC1CC2CCC(C1)N2C` (single isomer, unassigned) [(S) SS20 (+)], for which the “ANALGESIC ACTIVITY” value is given as “++ (Latency under or equal to 30" ++-)”.
`CCN1C2CCC1CC(OC(=O)C(C)Oc1ccc(Cl)cc1)C2` (centres unmarked) [GC9]: the “ANALGESIC ACTIVITY” value is reported as “++ (Latency under or equal to 30" ++-)”.
Regarding `CCC(Sc1ccc(Cl)cc1)C(=O)OC1CC2CCC(C1)N2C` (single isomer, unassigned) [(R) SM35 (+), 3α-Tropanyl 2-(p-chlorophenylthio)butyrate], the “ANALGESIC ACTIVITY” value was “+++ (Latency under or equal to 35" +++-)”.
In the case of `CN1CC[C@]23c4c5ccc(O)c4O[C@H]2[C@@H](O)C=C[C@H]3[C@H]1C5.Cl` [Morphine HCl, reference compound], the “dose required to obtain analgesia equivalent to that of the claimed compounds” value (mouse, in μmoles/kg) is reported as “three times lower”.
Consider `CC(Oc1ccc(C(F)(F)F)cc1)C(=O)O[C@H]1C[C@H]2CC[C@@H](C1)N2C` (some centres unmarked) [SM19], for which the “ANALGESIC ACTIVITY” value was “+ (Latency under or equal to 25" +-)”.
Same read-out and setting: for `CCC(Oc1ccc(F)cc1)C(=O)OC1CC2CCC(C1)N2C` (centres unmarked) [AC15] the value was “++++ (Latency above 35" ++++-)”.
